Experimental findings from patent US6831199B1, “Pyrimidine compounds and derivatives thereof” (G. D. Searle & Co., priority 1995, dated 2004) are described below.

Structures are written as SMILES. Structures can show the parent of a compound that is named as a salt. Where two headings read alike, the source gives them in different places.

Test [1] addresses T1, Human vitronectin receptor (αvβ3) (Homo sapiens, UniProt P05106+P06756).
T1 construct: Human vitronectin receptor (αvβ3) was purified from human placenta; from tissue; host or cells: human placenta
The test can be described thus: Vitronectin adhesion assay (solid phase receptor assay, competition with biotinylated vitronectin). Format: binding. To be noted: read-out: AvB3 IC50. The method, boiled down: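 Purified human αvβ3 coated overnight at 4 °C in TBS with 1.0 mM Ca++, Mg++, Mn++, pH 7.4; compounds (top final 1.0×10^−4 M) competed with 1 nM biotinylated vitronectin for 2 h at room temperature. Bound ligand detected by HRP anti-biotin/OPD at A450; values normalized to no-competitor controls, four-parameter curve fit.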

A further test relates to platelet rich plasma. The test can be described thus: Human platelet rich plasma assay (ADP induced platelet aggregation). It is filed as cell-based. To be noted: Homo sapiens, Platelet, read-out: Human PRP. The procedure: Human Platelet Rich Plasma Assays
Healthy aspirin free donors were selected from a pool of volunteers. The harvesting of platelet rich plasma and subsequent ADP induced platelet aggregation assays were performed as described in Zucker, M. B., “Platelet Aggregation Measured by the Photometric Method”, Methods in Enzymology 169(1989):117-133. Standard venipuncture techniques using a butterfly allowed the withdrawal of 45 mL of whole blood into a 60 mL syringe containing 5 mL of 3.8% trisodium citrate. Following thorough mixing in the syringe, the anti-coagulated whole blood was transferred to a 50 mL conical polyethylene tube. The blood was centrifuged at room temperature for 12 minutes at 200×g to sediment non-platelet cells. Platelet rich plasma was removed to a polyethylene tube and stored at room temperature until used. Platelet poor plasma was obtained from a second centrifugation of the remaining blood at 2000×g for 15 minutes. Platelet counts are typically 300,000 to 500,000 per microliter. Platelet rich plasma (0.45 mL) was aliquoted into siliconized cuvettes and stirred (1100 rpm) at 37° C. for 1 minute prior to adding 50 uL of pre-diluted test compound. After 1 minute of mixing, aggregation was initiated by the addition of 50 uL of 200 uM ADP. Aggregation was recorded for 3 minutes in a Payton dual channel aggregometer (Payton Scientific, Buffalo, N.Y.). The percent inhibition of maximal response (saline control) for a series of test compound dilutions was used to determine a dose response curve.

In test [2] the target is T2, Human fibrinogen receptor (αIIbβ3) (Homo sapiens, UniProt P05106+P08514).
T2 construct: Human fibrinogen receptor (αIIbβ3) was purified from outdated platelets; from tissue; host or cells: outdated human platelets
The test can be described thus: Purified IIb/IIIa receptor assay (solid phase receptor assay, competition with biotinylated vitronectin). Format: binding. To be noted: read-out: IIb/IIIa IC50. The method in brief: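 Competition format: 1 nM biotinylated vitronectin plus test compound (highest 1.0×10^−4 M), 2 h at room temperature on wells coated with platelet-derived αIIbβ3. Buffer was TBS containing 1.0 mM Ca, Mg, Mn, pH 7.4. HRP anti-biotin readout at 450 nm; normalized to maximum binding, four-parameter curve fit.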

The mark [3] stands for this setting: ADP induced platelet aggregation in human platelet rich plasma.

For `C#C[C@H](CC(=O)O)NC(=O)CNC(=O)c1c(F)c(F)cc(NC(=N)N)c1F` [Example 35, βS-[[2-[[[3-[(aminoiminomethyl)amino]-2,5,6-trifluorophenyl]carbonyl]amino]acetyl]amino]-4-pentynoic acid, trifluoroacetate salt], the IC50 in test [1] was 57.1 nM; in the test on platelet rich plasma (setting [3]) it was 69500 nM; in test [2], 6.21 nM.

Take `C#C[C@H](CC(=O)O)NC(=O)CNC(=O)c1cccc(NC(N)=O)c1` [Example 40, 3S-[[2-[[[3-(aminocarbonylamino)phenyl]carbonyl]amino]acetyl]amino]-4-pentynoic acid]: the IC50 in test [1] is 10.3 nM; in the test on platelet rich plasma (setting [3]) it was greater than 200000 nM; in test [2], 834 nM.

On to `C#C[C@H](CC(=O)O)NC(=O)CNC(=O)c1cccc(NC(=O)NCc2ccccc2)c1` [Example 44, 3S-[[2-[[[3-[[[(phenylmethyl)amino]carbonyl]amino]phenyl]carbonyl]amino]acetyl]amino]-4-pentynoic acid], for which the IC50 in test [1] is 0.33 nM; in the test with platelet rich plasma (setting [3]), greater than 20000 nM; in test [2], 998 nM.

With `N=C(N)Nc1cccc(C(=O)NCC(=O)NC(CC(=O)O)CC(=O)O)c1` [Example 53, 3-[[2-[[[3-[(aminoiminomethyl)amino]phenyl]carbonyl]amino]acetyl]amino]pentanedioic acid, trifluoroacetate salt], the IC50 was 54.6 nM in test [1], greater than 200000 nM in the test on platelet rich plasma (setting [3]) and 930 nM in test [2].

Consider `N=C(N)Nc1cccc(C(=O)NCC(=O)N[C@H](CSc2ccccc2)CC(=O)O)c1` [Example 68, 3S-[[2-[[[3-[(aminoiminomethyl)amino]phenyl]carbonyl]amino]acetyl]amino]-4-(phenylthio)butanoic acid, trifluoroacetate salt], for which the IC50 in test [1] is 5.48 nM; in the test on platelet rich plasma (setting [3]) it was greater than 200000 nM; in test [2] it was 125 nM.

As for `N=C(N)Nc1cccc(C(=O)NCC(=O)N[C@H](CSc2ccccc2C(=O)O)CC(=O)O)c1` [Example 72, 2-[[2S-[[2-[[[3-[(aminoiminomethyl)amino]phenyl]carbonyl]amino]acetyl]amino]-2-(carboxymethyl)ethyl]thio]benzoic acid, trifluoroacetate salt], the IC50 is 1.21 nM in test [1], greater than 200000 nM with platelet rich plasma (setting [3]) and 152 nM in test [2].

As to `N=C(N)Nc1cccc(C(=O)NCC(=O)NC(CC(=O)O)c2ccc3c(c2)OCCO3)c1` (stereo not drawn) [Example 95, β-[[(2-[[[3-[(aminoiminomethyl)amino]phenyl]carbonyl]amino]acetyl]amino]-1,4-benzodioxin-6-propanoic acid, trifluoroacetate salt], the IC50 is 1.43 nM in test [1], greater than 200000 nM in the test with platelet rich plasma (setting [3]) and 25.4 nM in test [2].

For `O=C(O)CCNC(=O)CNC(=O)c1cccc(NC(=O)NCc2ccccc2)c1` [Example 103, 3-[[2-[[[3-[[[(phenylmethyl)amino]carbonyl]amino]phenyl]carbonyl]amino]acetyl]amino]propanoic acid], the figures for the IC50 (in test [1]; in the test with platelet rich plasma (setting [3]); in test [2]) were 16.6 nM, greater than 20000 nM and 19100 nM, respectively.

Regarding `O=C(O)CC(NC(=O)CNC(=O)c1cccc(NC(=O)Nc2ccccc2)c1)c1cccnc1` (stereo not drawn) [Example 108, β-[[2-[[[3-[[(phenylamino]carbonyl]amino]phenyl]carbonyl]amino]acetyl]amino]pyridine-3-propanoic acid, trifluoroacetate salt], the IC50 was 25.2 nM in test [1], greater than 200000 nM in the test with platelet rich plasma (setting [3]) and 4870 nM in test [2].

For the compound `NC(=S)Nc1cccc(C(=O)NCC(=O)NC(CC(=O)O)c2ccccc2)c1` (stereo not drawn) [Example 117, β-[[2-[[[3-[(aminothioxomethyl)amino]phenyl]carbonyl]amino]acetyl]amino]benzenepropanoic acid], the results for the IC50 (in test [1]; in the test with platelet rich plasma (setting [3]); in test [2]) were 60.1 nM, greater than 200000 nM and 20100 nM, respectively.

`O=C(O)CC(NC(=O)CNC(=O)c1cccc(NC(=O)NCc2ccccc2)c1)c1ccc2c(c1)OCO2` (stereo not drawn) [Example 122, β-[[2-[[[3-[[[(phenylmethyl)amino]carbonyl]amino]phenyl]carbonyl]amino]acetyl]amino]-1,3-benzodioxole-5-propanoic acid]: the IC50 in test [1] is 0.79 nM; with platelet rich plasma, greater than 20000 nM; in test [2], 420 nM.

Turning to `O=C(O)CC(NC(=O)CNC(=O)c1cccc(NC(=O)Nc2ccccc2)c1)c1ccc2c(c1)OCO2` (stereo not drawn) [Example 124, β-[[2-[[[3-3-[[(phenylamino]carbonyl]amino]phenyl]carbonyl]amino]acetyl]amino]-1,3-benzodioxole-5-propanoic acid], the results for the IC50 (in test [1]; in the test with platelet rich plasma (setting [3]); in test [2]) were 22 nM, greater than 20000 nM and 317 nM, respectively.

For the compound `NS(=O)(=O)c1ccc(CNC(=O)Nc2cccc(C(=O)NCC(=O)NC(CC(=O)O)c3cccnc3)c2)cc1` (stereo not drawn) [Example 126, β-[[2-[[[3-[[[[(4-(aminosulfonyl)phenylmethyl]amino]carbonyl]amino]phenyl]carbonyl]amino]acetyl]amino]pyridine-3-propanoic acid, trifluoroacetate salt], the results for the IC50 (in test [1]; in the test with platelet rich plasma (setting [3]); in test [2]) were 2.48 nM, greater than 200000 nM and 2010 nM, respectively.

With `O=C(O)CC(NC(=O)CNC(=O)c1cccc(NC(=O)NCc2cccnc2)c1)c1cccnc1` (stereo not drawn) [Example 127, β-[[2-[[[3-[[[3-pyridinylmethyl)amino]carbonyl]amino]phenyl]carbonyl]amino]acetyl]amino]pyridine-3-propanoic acid, bis trifluoroacetate salt], the IC50 in test [1] is 0.51 nM; in the test on platelet rich plasma (setting [3]), greater than 200000 nM; in test [2] it was 461 nM.

With `O=C(O)CCNC(=O)Nc1cccc(C(=O)NCC(=O)NC(CC(=O)O)c2cccnc2)c1` (stereo not drawn) [Example 129, β-[[2-[[[3-[[[(2-carboxyethyl)amino]carbonyl]aminophenyl]carbonyl]amino]acetyl]amino]pyridine-3-propanoic acid, trifluoroacetate salt], the values for the IC50 (in test [1]; with platelet rich plasma (setting [3]); in test [2]) were 68.9 nM, greater than 200000 nM and 9460 nM, respectively.

`O=C(O)CC(NC(=O)CNC(=O)c1cccc(NC(=O)NCCc2ccccc2)c1)c1cccnc1` (stereo not drawn) [Example 130, β-[[2-[[[3-[[[(2-phenylethyl)amino]carbonyl]amino]phenyl]carbonyl]amino]acetyl]amino]pyridine-3-propanoic acid, trifluoroacetate salt]: the figures for the IC50 (in test [1]; in the test on platelet rich plasma (setting [3]); in test [2]) were 47 nM, greater than 200000 nM and 2690 nM, respectively.

`O=C(O)CC(NC(=O)CNC(=O)c1cccc(NC(=O)NCc2cccc3ccccc23)c1)c1cccnc1` (stereo not drawn) [Example 131, β-[[2-[[[3-[[[(1-naphthalenylmethyl)amino]carbonyl]amino]phenyl]carbonyl]amino]acetyl]amino]pyridine-3-propanoic acid, trifluoroacetate salt]: the IC50 in test [1] is 3.82 nM; with platelet rich plasma (setting [3]), greater than 20000 nM; in test [2], 1760 nM.

As for `N#C/N=C(\NCc1ccccc1)Nc1cccc(C(=O)NCC(=O)NC(CC(=O)O)c2ccccc2)c1` (stereo not drawn) [Example 136, β-[[2-[[[3-[[(cyanoimino)[(phenylmethyl)amino]methyl]amino]phenyl]carbonyl]amino]acetyl]amino]benzenepropanoic acid], the IC50 in test [1] is 54.4 nM; in the test on platelet rich plasma (setting [3]), greater than 20000 nM; in test [2], 14200 nM.

As for `CN/C(=N\C#N)Nc1cccc(C(=O)NCC(=O)NC(CC(=O)O)c2ccccc2)c1` (stereo not drawn) [Example 137, β-[[2-[[[3-[[(cyanoimino)(methylamino)methyl]amino]phenyl]carbonyl]amino]acetyl]amino]benzenepropanoic acid], the results for the IC50 (in test [1]; in the test with platelet rich plasma (setting [3]); in test [2]) were 16.2 nM, greater than 200000 nM and 6500 nM, respectively.

Take `N#C/N=C(\N)Nc1cccc(C(=O)NCC(=O)NC(CC(=O)O)c2ccccc2)c1` (stereo not drawn) [Example 138, β-[[2-[[[3-[[amino(cyanoimino)methyl]amino]phenyl]carbonyl]amino]acetyl]amino]benzenepropanoic acid]: the results for the IC50 (in test [1]; in the test on platelet rich plasma (setting [3]); in test [2]) were 36.9 nM, greater than 200000 nM and 5820 nM, respectively.

As for `CCN/C(=N\C#N)Nc1cccc(C(=O)NCC(=O)NC(CC(=O)O)c2ccccc2)c1` (stereo not drawn) [Example 139, β-[[2-[[[3-[[(cyanoimino)(ethylamino)methyl]amino]phenyl]carbonyl]amino]acetyl]amino]benzenepropanoic acid], the IC50 was 23.8 nM in test [1], greater than 200000 nM with platelet rich plasma (setting [3]) and 16100 nM in test [2].
